Patent publication US20080009418A1, “Selective Inhibitors” (Alchemia LTD., priority 2004, published 2008)

How the values were obtained:
Human μ-opioid (MOP) = target: T1, Human μ-opioid (MOP) (Homo sapiens, UniProt P35372); experiment: Radioligand binding, human μ-opioid (MOP) membranes, FlashPlate, [3H]-Naloxone; settings: compound at 10 μM; for A7 radioligand binding inhibition: human μ-opioid (MOP) membranes; for A7: inhibition of radioligand binding: FlashPlate
T1 construct: purchased Perkin Elmer Biosignal
Procedure, shortened: (§1)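 Cloned human receptor membranes were coated onto FlashPlate wells and incubated with radioligand and compound (added from a 0.5 mM DMSO daughter plate) for 1 hour at room temperature in the dark. Scintillation counting gave percent inhibition, with DMSO defining total and reference ligand defining non-specific binding.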

Mouse urotensin (mUR2) = target: T2, Mouse urotensin (mUR2) (Mus musculus, UniProt Q8VIH9); experiment: Radioligand binding, mouse urotensin mUR2 membranes, FlashPlate, [125I]-Urotensin II; settings: compound at 10 μM; for A11 radioligand binding inhibition: mouse urotensin mUR2 membranes; for A11: inhibition of radioligand binding: FlashPlate
T2 construct: purchased Perkin Elmer Biosignal
T2 sequence (Q8VIH9 1-385): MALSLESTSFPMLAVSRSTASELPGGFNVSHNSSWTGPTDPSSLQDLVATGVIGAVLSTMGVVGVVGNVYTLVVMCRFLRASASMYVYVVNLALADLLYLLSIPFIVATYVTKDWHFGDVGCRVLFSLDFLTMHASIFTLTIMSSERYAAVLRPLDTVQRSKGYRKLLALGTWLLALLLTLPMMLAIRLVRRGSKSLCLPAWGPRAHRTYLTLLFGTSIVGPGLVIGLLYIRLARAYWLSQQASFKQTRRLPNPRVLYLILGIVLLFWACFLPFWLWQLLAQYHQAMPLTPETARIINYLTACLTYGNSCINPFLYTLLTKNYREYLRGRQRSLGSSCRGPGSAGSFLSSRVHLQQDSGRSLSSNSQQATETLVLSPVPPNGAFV
Procedure, shortened: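 Cloned mouse urotensin (mUR2) receptor membranes from Perkin Elmer Biosignal were immobilized in FlashPlate microplates using a proprietary coating. Each well got 19.5 μl buffer, then 0.5 μl of DMSO, reference ligand, or compound. Adding 5 μl of [125I]-Urotensin II, diluted to 5× final concentration in binding buffer, started binding. Plates were sealed with TopSeal-A and incubated 1 hour at room temperature in the dark. Wells were counted for 30 seconds each on a TopCount after a 60-second delay, and percentage inhibition was calculated.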

Human Melanocortin (MC4) = target: T3, Human Melanocortin (MC4) (Homo sapiens, UniProt P32245); experiment: Radioligand binding, human melanocortin MC4 membranes, FlashPlate, [125I]-NDP-αMSH; settings: compound at 10 μM; for A4 radioligand binding inhibition: human melanocortin MC4 membranes; for A4: inhibition of radioligand binding: FlashPlate
T3 construct: purchased Perkin Elmer Biosignal
Procedure, shortened: as §1

Human neurokinin (NK1) = target: T4, Human neurokinin (NK1) (Homo sapiens, UniProt P25103); experiment: Radioligand binding, human neurokinin NK1 membranes, filtration, [125I]-Substance P; settings: compound at 10 μM; for A8 radioligand binding inhibition: human neurokinin NK1 membranes; for A8: inhibition of radioligand binding: filtration
T4 construct: purchased Perkin Elmer Biosignal
Procedure, shortened: (§2)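 Percent inhibition of radioligand binding measured on recombinant human membranes: NK1 with [125I]-Substance P, KOP with [3H]-Diprenorphine. Incubation 1 h at room temperature, then harvest onto 0.3% PEI-soaked filters, cold Tris-HCl pH 7.4 washes and scintillation counting; non-specific binding from reference ligand wells.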

Human κ-Opioid (KOP) = target: T5, Human κ-Opioid (KOP) (Homo sapiens, UniProt P41145); experiment: Radioligand binding, human κ-opioid (KOP) membranes, filtration, [3H]-Diprenorphine; settings: compound at 10 μM; for A2 radioligand binding inhibition: human κ-opioid (KOP) membranes; for A2: inhibition of radioligand binding: filtration
T5 construct: purchased Perkin Elmer Biosignal
Procedure, shortened: as §2

[1] = target: T6, Human melanin-concentrating hormone (MCH1) (Homo sapiens, UniProt Q99705); experiment: Radioligand binding, human melanin-concentrating hormone MCH1 membranes, FlashPlate, [125I]-S36057; settings: compound at 10 μM; for A6 radioligand binding inhibition: human MCH1 membranes; for A6: inhibition of radioligand binding: [125I]-S36057, FlashPlate
T6 construct: purchased Perkin Elmer Biosignal
Procedure, shortened: as §1

Human opioid (ORL1) = target: T7, Human opioid (ORL1) (Homo sapiens, UniProt P41146); experiment: Radioligand binding, human opioid ORL1 membranes, FlashPlate, [125I]-Nociceptin; settings: compound at 10 μM; for A10 radioligand binding inhibition: human ORL1 membranes; for A10: inhibition of radioligand binding: FlashPlate
T7 construct: purchased Perkin Elmer Biosignal
Procedure, shortened: as §1

Human δ-opioid (DOP) = target: T8, Human δ-opioid (DOP) (Homo sapiens, UniProt P41143); experiment: Radioligand binding, human δ-opioid (DOP) membranes, FlashPlate, [3H]-Bremazocine; settings: compound at 10 μM; for A1 radioligand binding inhibition: human δ-opioid (DOP) membranes; for A1: inhibition of radioligand binding: FlashPlate
T8 construct: purchased Perkin Elmer Biosignal
Procedure, shortened: as §1

Human Melanocortin (MC3) = target: T9, Human Melanocortin (MC3) (Homo sapiens, UniProt P41968); experiment: Radioligand binding, human melanocortin MC3 membranes, FlashPlate, [125I]-NDP-αMSH; settings: compound at 10 μM; for A3 radioligand binding inhibition: human melanocortin MC3 membranes; for A3: inhibition of radioligand binding: FlashPlate
T9 construct: purchased Perkin Elmer Biosignal
Procedure, shortened: as §1

Human melanocortin (MC5) = target: T10, Human melanocortin (MC5) (Homo sapiens, UniProt P33032); experiment: Radioligand binding, human melanocortin MC5 membranes, FlashPlate, [125I]-NDP-αMSH; settings: compound at 10 μM; for A5 radioligand binding inhibition: human melanocortin MC5 membranes; for A5: inhibition of radioligand binding: FlashPlate
T10 construct: purchased Perkin Elmer Biosignal
Procedure, shortened: as §1

[2] = target: T11, Human neuropeptide Y (NPY-Y1) (Homo sapiens, UniProt P25929); experiment: Radioligand binding, human neuropeptide Y NPY-Y1 membranes, FlashPlate, [125I]-PYY; settings: compound at 10 μM; for A9 radioligand binding inhibition: human NPY-Y1 membranes; for A9: inhibition of radioligand binding: FlashPlate
T11 construct: purchased Perkin Elmer Biosignal
T11 sequence (P25929 1-384): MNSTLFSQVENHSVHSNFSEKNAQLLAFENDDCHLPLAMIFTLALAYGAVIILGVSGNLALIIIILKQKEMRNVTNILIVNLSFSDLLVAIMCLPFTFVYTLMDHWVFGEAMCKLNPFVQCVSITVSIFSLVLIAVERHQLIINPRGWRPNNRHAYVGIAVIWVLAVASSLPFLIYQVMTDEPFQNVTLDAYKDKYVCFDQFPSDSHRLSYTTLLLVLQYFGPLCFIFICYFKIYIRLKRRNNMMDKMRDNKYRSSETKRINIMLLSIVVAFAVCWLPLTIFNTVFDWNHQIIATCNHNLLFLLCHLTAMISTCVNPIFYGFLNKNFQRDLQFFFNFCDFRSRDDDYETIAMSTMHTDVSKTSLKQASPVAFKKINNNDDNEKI
Procedure, shortened: as §1

T1 sequence (P35372 whole entry): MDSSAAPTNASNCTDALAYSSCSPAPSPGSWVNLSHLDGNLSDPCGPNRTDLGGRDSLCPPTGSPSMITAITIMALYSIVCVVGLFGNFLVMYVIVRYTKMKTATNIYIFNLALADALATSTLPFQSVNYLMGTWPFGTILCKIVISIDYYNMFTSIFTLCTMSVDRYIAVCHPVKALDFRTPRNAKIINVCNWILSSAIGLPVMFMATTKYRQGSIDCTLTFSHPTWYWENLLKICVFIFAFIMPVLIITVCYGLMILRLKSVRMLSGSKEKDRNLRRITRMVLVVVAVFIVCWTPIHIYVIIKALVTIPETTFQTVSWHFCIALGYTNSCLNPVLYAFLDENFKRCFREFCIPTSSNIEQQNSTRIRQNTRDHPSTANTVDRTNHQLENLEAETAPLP
T10 sequence (P33032 whole entry): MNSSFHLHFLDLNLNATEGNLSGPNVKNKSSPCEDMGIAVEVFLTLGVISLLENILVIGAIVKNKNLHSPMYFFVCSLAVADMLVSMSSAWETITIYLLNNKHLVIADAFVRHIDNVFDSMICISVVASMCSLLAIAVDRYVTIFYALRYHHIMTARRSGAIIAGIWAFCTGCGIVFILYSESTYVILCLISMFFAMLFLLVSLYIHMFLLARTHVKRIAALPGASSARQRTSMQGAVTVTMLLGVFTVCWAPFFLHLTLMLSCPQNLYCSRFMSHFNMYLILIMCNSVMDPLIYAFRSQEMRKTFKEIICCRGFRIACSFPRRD
T4 sequence (P25103 whole entry): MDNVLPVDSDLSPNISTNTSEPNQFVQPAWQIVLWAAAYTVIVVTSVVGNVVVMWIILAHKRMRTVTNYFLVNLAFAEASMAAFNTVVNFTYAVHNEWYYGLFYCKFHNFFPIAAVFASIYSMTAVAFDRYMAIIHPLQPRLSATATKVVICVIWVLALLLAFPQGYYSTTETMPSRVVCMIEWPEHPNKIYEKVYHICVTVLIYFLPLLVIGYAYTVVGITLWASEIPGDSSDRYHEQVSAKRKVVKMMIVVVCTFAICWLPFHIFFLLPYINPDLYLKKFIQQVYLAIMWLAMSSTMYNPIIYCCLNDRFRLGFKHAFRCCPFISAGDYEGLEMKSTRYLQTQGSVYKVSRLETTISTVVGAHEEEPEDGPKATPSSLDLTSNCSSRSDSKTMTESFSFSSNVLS
T3 sequence (P32245 whole entry): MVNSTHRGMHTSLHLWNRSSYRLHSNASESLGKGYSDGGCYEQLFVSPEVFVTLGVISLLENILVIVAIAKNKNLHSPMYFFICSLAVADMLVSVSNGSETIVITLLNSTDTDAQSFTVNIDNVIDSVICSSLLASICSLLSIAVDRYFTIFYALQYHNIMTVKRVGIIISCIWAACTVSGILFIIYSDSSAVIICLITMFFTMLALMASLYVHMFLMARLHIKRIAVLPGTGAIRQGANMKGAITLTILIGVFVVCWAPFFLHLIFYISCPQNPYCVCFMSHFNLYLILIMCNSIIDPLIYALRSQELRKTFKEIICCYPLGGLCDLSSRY
T5 sequence (P41145 whole entry): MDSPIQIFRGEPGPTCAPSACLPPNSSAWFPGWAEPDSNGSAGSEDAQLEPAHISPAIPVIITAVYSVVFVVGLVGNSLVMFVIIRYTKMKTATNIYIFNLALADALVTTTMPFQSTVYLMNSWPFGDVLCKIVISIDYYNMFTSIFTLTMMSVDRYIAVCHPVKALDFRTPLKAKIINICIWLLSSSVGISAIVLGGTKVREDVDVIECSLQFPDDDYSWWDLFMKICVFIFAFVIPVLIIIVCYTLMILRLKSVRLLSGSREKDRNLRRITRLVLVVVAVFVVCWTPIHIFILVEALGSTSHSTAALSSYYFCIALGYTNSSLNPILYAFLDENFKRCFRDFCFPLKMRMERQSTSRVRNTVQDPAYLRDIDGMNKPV
T6 sequence (Q99705 whole entry): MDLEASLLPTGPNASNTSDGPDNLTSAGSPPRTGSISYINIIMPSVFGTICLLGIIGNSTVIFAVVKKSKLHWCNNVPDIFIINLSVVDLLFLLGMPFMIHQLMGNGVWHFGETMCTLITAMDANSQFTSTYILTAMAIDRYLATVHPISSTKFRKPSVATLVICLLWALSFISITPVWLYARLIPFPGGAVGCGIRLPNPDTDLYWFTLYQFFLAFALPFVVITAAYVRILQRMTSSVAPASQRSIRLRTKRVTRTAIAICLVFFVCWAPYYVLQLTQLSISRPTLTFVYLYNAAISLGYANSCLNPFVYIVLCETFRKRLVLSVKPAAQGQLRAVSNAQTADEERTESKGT
T7 sequence (P41146 whole entry): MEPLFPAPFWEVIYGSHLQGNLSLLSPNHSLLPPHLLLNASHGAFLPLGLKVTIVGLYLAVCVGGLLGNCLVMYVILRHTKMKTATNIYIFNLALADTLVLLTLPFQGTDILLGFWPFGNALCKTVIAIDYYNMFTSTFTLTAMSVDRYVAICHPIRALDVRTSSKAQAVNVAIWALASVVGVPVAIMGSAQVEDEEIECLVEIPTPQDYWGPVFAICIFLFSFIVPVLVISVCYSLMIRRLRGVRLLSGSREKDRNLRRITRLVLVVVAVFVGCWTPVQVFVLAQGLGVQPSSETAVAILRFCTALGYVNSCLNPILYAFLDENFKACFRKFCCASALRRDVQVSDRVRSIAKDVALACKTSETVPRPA
T9 sequence (P41968 whole entry): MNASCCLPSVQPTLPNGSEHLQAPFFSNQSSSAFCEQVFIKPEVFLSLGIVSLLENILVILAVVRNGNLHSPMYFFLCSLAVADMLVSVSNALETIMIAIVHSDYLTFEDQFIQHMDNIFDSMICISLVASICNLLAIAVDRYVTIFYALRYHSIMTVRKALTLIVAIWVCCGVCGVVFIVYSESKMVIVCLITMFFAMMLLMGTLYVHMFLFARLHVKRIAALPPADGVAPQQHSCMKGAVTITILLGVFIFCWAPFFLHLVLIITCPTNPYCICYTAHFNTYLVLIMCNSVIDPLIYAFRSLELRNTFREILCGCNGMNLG
T8 sequence (P41143 whole entry): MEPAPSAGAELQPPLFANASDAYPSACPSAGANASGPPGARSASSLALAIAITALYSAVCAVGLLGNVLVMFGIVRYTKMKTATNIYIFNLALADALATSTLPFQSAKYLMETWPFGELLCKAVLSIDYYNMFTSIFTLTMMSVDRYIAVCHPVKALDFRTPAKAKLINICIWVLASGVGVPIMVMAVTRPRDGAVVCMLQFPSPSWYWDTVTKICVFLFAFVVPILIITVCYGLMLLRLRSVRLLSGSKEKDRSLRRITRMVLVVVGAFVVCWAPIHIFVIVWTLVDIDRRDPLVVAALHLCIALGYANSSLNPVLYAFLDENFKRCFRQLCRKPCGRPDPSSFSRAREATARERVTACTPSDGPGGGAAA

| SMILES | A7 radioligand binding inhibition (Human μ-opioid (MOP)) | A11 radioligand binding inhibition (Mouse urotensin (mUR2)) | A4 radioligand binding inhibition (Human Melanocortin (MC4)) | A8 radioligand binding inhibition (Human neurokinin (NK1)) | A2 radioligand binding inhibition (Human κ-Opioid (KOP)) | A6 radioligand binding inhibition [1] | A10 radioligand binding inhibition (Human opioid (ORL1)) | A1 radioligand binding inhibition (Human δ-opioid (DOP)) | A3 radioligand binding inhibition (Human Melanocortin (MC3)) | A5 radioligand binding inhibition (Human melanocortin (MC5)) | A9 radioligand binding inhibition [2] | A7: inhibition of radioligand binding (Human μ-opioid (MOP); [3H]-Naloxone) | A11: inhibition of radioligand binding (Mouse urotensin (mUR2); [125I]-Urotensin II) | A4: inhibition of radioligand binding (Human Melanocortin (MC4); [125I]-NDP-αMSH) | A8: inhibition of radioligand binding (Human neurokinin (NK1); [125I]-Substance P) | A2: inhibition of radioligand binding (Human κ-Opioid (KOP); [3H]-Diprenorphine) | A6: inhibition of radioligand binding [1] | A10: inhibition of radioligand binding (Human opioid (ORL1); [125I]-Nociceptin) | A1: inhibition of radioligand binding (Human δ-opioid (DOP); [3H]-Bremazocine) | A3: inhibition of radioligand binding (Human Melanocortin (MC3); [125I]-NDP-αMSH) | other results |
| --- | --- | --- | --- | --- | --- | --- | --- | --- | --- | --- | --- | --- | --- | --- | --- | --- | --- | --- | --- | --- | --- |
| NCCCC(=O)NC1C(OCc2ccc(Cl)cc2)OC(COCc2ccccc2)C(O)C1OCc1ccccc1 (single isomer, unassigned) [compound 503] | – | – | – | – | – | – | – | – | – | – | – | – | – | – | – | – | – | – | – | – | A7: inhibition of radioligand binding, human μ-opioid (MOP) (Human μ-opioid (MOP); [3H]-Naloxone): − (“−” indicates less than 50% inhibition at 10 μM); A11: inhibition of radioligand binding, mouse urotensin (mUR2) (Mouse urotensin (mUR2); [125I]-Urotensin II): − (“−” indicates less than 50% inhibition at 10 μM); A4: inhibition of radioligand binding, human melanocortin (MC4) (Human Melanocortin (MC4); [125I]-NDP-αMSH): − (“−” indicates less than 50% inhibition at 10 μM); A8: inhibition of radioligand binding, human neurokinin (NK1) (Human neurokinin (NK1); [125I]-Substance P): + (“+” indicates greater than 50% inhibition at 10 μM); A2: inhibition of radioligand binding, human κ-opioid (KOP) (Human κ-Opioid (KOP); [3H]-Diprenorphine): − (“−” indicates less than 50% inhibition at 10 μM); A6: inhibition of radioligand binding, human melanin-concentrating hormone (MCH1) ([1]; [125I]-S36057): − (“−” indicates less than 50% inhibition at 10 μM); A10: inhibition of radioligand binding, human opioid (ORL1) (Human opioid (ORL1); [125I]-Nociceptin, 10 µM): − (“−” indicates less than 50% inhibition at 10 μM); A1: inhibition of radioligand binding, human δ-opioid (DOP) (Human δ-opioid (DOP); [3H]-Bremazocine): − (“−” indicates less than 50% inhibition at 10 μM); A3: inhibition of radioligand binding, human melanocortin (MC3) (Human Melanocortin (MC3); [125I]-NDP-αMSH): − (“−” indicates less than 50% inhibition at 10 μM); A5: inhibition of radioligand binding, human melanocortin (MC5) (Human melanocortin (MC5); [125I]-NDP-αMSH, 10 µM): + (“+” indicates greater than 50% inhibition at 10 μM); A9: inhibition of radioligand binding, human neuropeptide Y (NPY-Y1) ([2]; [125I]-PYY): − (“−” indicates less than 50% inhibition at 10 μM) |
| COC[C@H]1OC(OCc2ccc(-c3ccccc3)cc2)[C@H](NC(=O)CCCNC(=N)N)[C@@H](OCc2ccc(Cl)cc2)[C@@H]1O (stereo partly shown) [compound 13] | + (“+” indicates greater than 50% inhibition at 10 μM) | − (“−” indicates less than 50% inhibition at 10 μM) | − (“−” indicates less than 50% inhibition at 10 μM) | + (“+” indicates greater than 50% inhibition at 10 μM) | − (“−” indicates less than 50% inhibition at 10 μM) | + (“+” indicates greater than 50% inhibition at 10 μM) | − (“−” indicates less than 50% inhibition at 10 μM) | − (“−” indicates less than 50% inhibition at 10 μM) | − (“−” indicates less than 50% inhibition at 10 μM) | + (“+” indicates greater than 50% inhibition at 10 μM) | − (“−” indicates less than 50% inhibition at 10 μM) | – | – | – | – | – | – | – | – | – | – |
| COCC1OC(OCCc2ccccc2)C(NC(=O)CCCN)C(OCc2ccccc2)C1O (stereo not shown) [compound 217] | – | – | – | – | – | – | – | – | – | – | – | − (“−” indicates less than 50% inhibition at 10 μM) | − (“−” indicates less than 50% inhibition at 10 μM) | − (“−” indicates less than 50% inhibition at 10 μM) | + (“+” indicates greater than 50% inhibition at 10 μM) | − (“−” indicates less than 50% inhibition at 10 μM) | − (“−” indicates less than 50% inhibition at 10 μM) | − (“−” indicates less than 50% inhibition at 10 μM) | − (“−” indicates less than 50% inhibition at 10 μM) | − (“−” indicates less than 50% inhibition at 10 μM) | A5: inhibition of radioligand binding (Human melanocortin (MC5); [125I]-NDP-αMSH): − (“−” indicates less than 50% inhibition at 10 μM); A9: inhibition of radioligand binding ([2]; [125I]-PYY): − (“−” indicates less than 50% inhibition at 10 μM) |
| CSC1OC(COCc2ccc(Cl)cc2)C(O)C(OCc2ccccc2)C1NC(=O)CCNC(=N)N (stereo not shown) [compound 254] | – | – | – | – | – | – | – | – | – | – | – | − (“−” indicates less than 50% inhibition at 10 μM) | − (“−” indicates less than 50% inhibition at 10 μM) | − (“−” indicates less than 50% inhibition at 10 μM) | + (“+” indicates greater than 50% inhibition at 10 μM) | − (“−” indicates less than 50% inhibition at 10 μM) | − (“−” indicates less than 50% inhibition at 10 μM) | − (“−” indicates less than 50% inhibition at 10 μM) | − (“−” indicates less than 50% inhibition at 10 μM) | − (“−” indicates less than 50% inhibition at 10 μM) | A5: inhibition of radioligand binding (Human melanocortin (MC5); [125I]-NDP-αMSH): − (“−” indicates less than 50% inhibition at 10 μM); A9: inhibition of radioligand binding ([2]; [125I]-PYY): − (“−” indicates less than 50% inhibition at 10 μM) |
| COC[C@H]1OC(OCc2ccc(-c3ccccc3)cc2)[C@H](NC(=O)CNC(=N)N)[C@@H](OCc2ccc3ccccc3c2)[C@@H]1O (stereo partly shown) [compound 3] | − (“−” indicates less than 50% inhibition at 10 μM) | − (“−” indicates less than 50% inhibition at 10 μM) | − (“−” indicates less than 50% inhibition at 10 μM) | + (“+” indicates greater than 50% inhibition at 10 μM) | − (“−” indicates less than 50% inhibition at 10 μM) | + (“+” indicates greater than 50% inhibition at 10 μM) | − (“−” indicates less than 50% inhibition at 10 μM) | − (“−” indicates less than 50% inhibition at 10 μM) | − (“−” indicates less than 50% inhibition at 10 μM) | + (“+” indicates greater than 50% inhibition at 10 μM) | − (“−” indicates less than 50% inhibition at 10 μM) | – | – | – | – | – | – | – | – | – | – |
